Assay results reported in patent publication US20250295656A1, “COMBINATION OF LURBINECTEDIN AND IMMUNE CHECKPOINT INHIBITORS” (priority 2020, published 2025).

How the values were obtained:
[1] = system: U2OS cells stably expressing CALR-GFP; assay: CALR-GFP granularity (surrogate marker of CALR exposure); format: cell-based, human; conditions: lurbinectedin 1 nM to 1 μM, MTX 1 and 3 μM, 4-32 hours, vs untreated controls
Description: (a) Human osteosarcoma U2OS (a), human breast cancer HCC70 (b) human colon cancer HT29 cells (c) and murine methylcholantrene-induced fibrosarcoma MCA205 cells (d) were treated with lurbinectedin (Lurbi, 1 nM, 10 nM, 100 nM and 1 μM) for the indicated times. Subsequently, the cells were stained with 1 μM Hoechst 33342 and 1 μM propidium iodide and assessed for the loss of viability by automated image acquisition. Images were segmented, cellular debris was excluded and the number of cells with normal nuclear morphology was enumerated. Cells stably expressing CALR-GFP were treated as above. Following the cells were fixed with 3.7% of PFA, stained with 1 μM Hoechst 33342 and assessed by automated image acquisition. Images were segmented, cellular debris was excluded and CALR-GFP granularity (a surrogate marker of CALR exposure) was evaluated in the cytoplasmic region of cells with normal nuclear morphology. Wild type cells were treated as above and then assessed for cytoplasmic quinacrine granularity (after staining with the ATP-sensitive dye quinacrine together with Hoechst 33342) by automated image acquisition, segmentation and analysis. Cells stably expressing HMGB1-GFP were treated as above and then assessed for nuclear HMGB1-GFP fluorescence intensity. The cells were fixed and stained with Hoechst 33342 and images were acquired, segmented and analyzed. […]

[2] = system: Murine fibrosarcoma MCA205 cells; assay: In vitro cell death of MCA205 cells prepared for vaccination; format: cell-based, mouse; conditions: 1 μM lurbinectedin for 24 h

## COc1ccc2[nH]c3c(c2c1)CCN[C@]31CS[C@@H]2c3c(OC(C)=O)c(C)c4c(c3[C@H](COC1=O)N1[C@@H]2[C@H]2c3c(cc(C)c(OC)c3O)C[C@@H]([C@@H]1O)N2C)OCO4 [lurbinectedin]
[1]
  CALR-granularity: time- and dose-dependent increase
[2]
  cell death: approximately 70%
